These results are taken from US8759488B2, “High stability streptavidin mutant proteins” (Isis Innovation Limited, priority 2009, dated 2014).

The conditions of data set [1]: cited from earlier work.
A short description of data set [2]: Biotin-4-fluorescein (B-4-F) off-rate assay. It is filed as binding. The protocol: The off rate of streptavidin or the streptavidin mutants for biotin can be easily measured using the Biotin-4-fluorescein (B-4-F) off-rate assay described in the Examples. In this assay streptavidin (or a mutant thereof) is incubated with 12 nM B-4-F for 30 minutes at 37° C., where the binding of B-4-F to streptavidin quenches fluorescence. Excess biotin (100 μM) is added and fluorescence is then measured every 10 minutes for 10-18 hours. The rate of recovery of fluorescence indicates B-4-F off-rate from the streptavidin. Thus, the quicker that the fluorescence is seen in the sample the higher is the off rate, as fluorescence only starts to increase once B-4-F has dissociated from streptavidin.
The amount of B-4-F recovered during an incubation with wildtype streptavidin is at least 9%, for example 10, 11 or 12%. The amount of B-4-F recovered after a 10 hour incubation with a mutant streptavidin of the present invention may be less than 9%, for example less than 8, 7, 6, 5, 4, 3, 2 or 1%. Particularly, the amount of B-4-F recovered may be 2-3%.
The off-rate of biotin-4-fluorescein from avidin, streptavidin or traptavidin was measured using a PHERAstar plate-reader with 480 nm excitation and 520 nm emission (BMG LABTECH). In this assay the binding of biotin-4-fluorescein to an excess of binding protein results in quenching of fluorescein emission (Kada et al., 1999, Biochim. Biophys. Acta, 1427, 33-43). As the biotin-4-fluorescein dissociates, the fluorescence recovers. The assay was performed in the presence of excess biotin so that sites left open by biotin-4-fluorescein dissociation are immediately re-filled by biotin. 1 μM protein in 10 μL PBS was added to 12 nM biotin-4-fluorescein (Invitrogen), 0.12 mg/mL BSA in 170 μL PBS and incubated for 1 hr at 37° C. 20 μL PBS or 20 μL 1 mM biotin in PBS was then added and fluorescence measurements immediately started at 37° C. Percentage dissociation was calculated as (signal with biotin−signal without biotin)/(signal without quenching−signal without biotin)×100.
Since biotin-4-fluorescein fluorescence is decreased at low pH, 100 nM streptavidin, S52G R53N streptavidin, S52G R53S streptavidin, or traptavidin was incubated with 12 nM biotin-4-fluorescein in 100 mM NaCl, 30 mM sodium citrate pH 5.0 for 3 hr at 25° C., before incubating at 37° C. and adding 100 μM biotin and incubating for various times. Samples were then placed on ice to block further dissociation, adjusted to pH 7.2 with 1M HEPES pH 8.3, and fluorescence intensity was immediately measured as above. p-values were calculated using two-tailed Student t-tests from the data at the final timepoint.

Data set [3] is described as follows: Thermostability of the tetramer structure (SDS-PAGE). The class given is physicochemical. The conditions noted are these: absence of biotin, heated 3 min. The text has this: Streptavidin naturally occurs in tetrameric form i.e. made up of four streptavidin subunits. Streptavidin tetramers will however dissociate into monomeric form at high temperatures. […] For example, thermostability can be measured in terms of the temperature at which 50% of streptavidin is in the tetrameric form and 50% is in the monomeric form i.e. the temperature at which there is 50% dissociation.
Thermostability can be easily determined by heating streptavidin or a mutant thereof to a particular temperature and then placing on ice. The amounts of subunits/tetramers present can be determined using SDS-PAGE and quantifying band intensities.
3 μM streptavidin or traptavidin in PBS was heated at the indicated temperature for 3 min in a Bio-Rad DNA Engine® Peltier Thermal Cycler and then immediately placed on ice (Bayer et al., 1996, Electrophoresis, 17, 1319-1324). Samples were mixed with 6×SDS-PAGE loading buffer and loaded onto a 18% polyacrylamide gel. The 100% monomer positive control was mixed with SDS loading buffer prior to heating at 95° C. for 3 min. Band intensities were quantified using a ChemiDoc XRS imager and QuantityOne 4.6 software (Bio-Rad).

A short description of data set [4]: Thermostability of biotin-conjugate binding (agarose gel). The note with it: for dissociation of biotinylated DNA at 70° C.: 3 min. The text has this: For example, thermostability for biotin or a biotin conjugate can be measured in terms of the temperature at which 50% of the biotin or biotin conjugate is bound by the streptavidin, i.e. the temperature at which there is 50% dissociation. […] Thermostability for biotin or a biotin conjugate can be easily determined by heating streptavidin or a mutant thereof with biotin or a biotin conjugate to a particular temperature and then placing on ice. The amounts of free versus bound biotin conjugate present can be determined using an agarose gel and quantifying the band intensities.
To determine the thermostability of bioin-conjugate binding, 5.0 μM streptavidin or traptavidin in PBS was incubated with 21 nM monobiotinylated DNA in 4 μL for 30 minutes at 25° C. The samples were made up to a total volume of 10 μL with a final concentration of 100 μM biotin, 20 mM Tris acetate, 1 mM DDT, 2 mM magnesium acetate and 20 mM potassium glutamate pH 7.5 and were incubated for 5 minutes at 25° C. Samples were then heated at the indicated temperature for 3 minutes using a Thermal Cycler and cooled to 10° C. An agarose gel of 1.5% was run at 6.0V/cm in TAE at 25° C. for 45 minutes and DNA stained with ethidium bromide was visualized using a ChemiDoc XRS imager and QuantityOne 4.6 software. The percentages were calculated as 100× the intensity of the band for free DNA divided by the summed intensities of the bands for free and bound DNA. The 439 bp biotinylated DNA was prepared by PCR using Taq polymerase employing the primers Fts1 and the internally biotinylated primer bioFts2 (Eurofins) from the plasmid pJEG41-N1.

Data set [5] has as its system biotinylated DNA with FtsK50C. Put plainly: FtsK displacement assay. Further details: species or system E. coli. The conditions noted are these: in the presence of ATP, 2 min, 25° C.
Procedure: The FtsK displacement assay was performed at 25° C. in 25 mM Tris pH 7.5, 10 mM MgCl2. 5.9 nM DNA fragment was incubated with 0.5 μM streptavidin or traptavidin for 15 min, followed by 100 μM biotin to block free biotin binding sites. 1 μM FtsK50C was added and allowed to bind to the DNA for 5 min. 2.5 mM ATP was added to start the reaction, which was stopped after 2 min with 0.1% SDS and 20 mM EDTA. Samples were incubated for 20 mM to allow FtsK50C denaturation, mixed with 10× gel loading buffer (250 mM Tris pH 7.5, 20 mM EDTA, 50% glycerol, 2.5% bromophenol blue) and loaded on a 1.5% agarose gel in 1×TBE (89 mM Tris, 89 mM boric acid, 2 mM EDTA, pH 8.3) at 10 V/cm for 2 hr at 25° C. Gels were stained with SYBR Green (Invitrogen) for 2 hr, washed in ddH2O for 30 mM, imaged using a Fuji FLA3000 scanner, and quantified using Image Gauge software (Fuji). p-values were calculated using a two-tailed Student t-test.
For data set [6] the following is noted: free biotin; cited from earlier work.
The conditions of data set [7]: depending on the conjugate; cited from earlier work.
Data set [8] in a line: On-rate assay (biotin-4-fluorescein quenching). The class given is binding. On the procedure: The on rate can be measured again using an adapted B-4-F assay as described above. […] The on rate can therefore be established by the decrease in the amount of fluorescence which occurs over the incubation time. The faster the rate of decrease in fluorescence, the higher the on rate.
The on-rate of biotin-4-fluorescein from streptavidin or traptavidin was measured in PBS on a PHERAstar plate-reader (BMG LABTECH). In this assay the binding of biotin-4-fluorescein to streptavidin/traptavidin results in quenching of the fluorescein emission (Kada et al., 1999). 20 μL 10 nM streptavidin or traptavidin was added to 180 μL 56 μM biotin-4-fluorescein and the fluorescein emission at measured every 6 s at 25° C. The concentration of free biotin-4-fluorescein was calculated as (signal with biotin−signal without biotin)/(signal without quenching−signal without biotin)×50 μM starting biotin-4-fluorescein. Linear regression using GraphPad Prism was applied to the plot of 1n free biotin-4-fluorescein against time, with the gradient equal to kon×[streptavidin or traptavidin].

Data set [9] relates to AP-IGF1R/BirA-ER expressing COST cells. Put plainly: Cellular imaging with Alexa Fluor 555 conjugates. The class given is cell-based. The protocol:
Streptavidin and […] labeled with Alexa Fluor 555 by adding 1/10 volume of 1 M NaHCO3 pH 8.3 and then a 10-fold molar excess of Alexa Fluor 555 succinimidyl ester (Invitrogen) (stock dissolved at 1 mg/mL in dry dimethylformamide) and incubating for 4 hr at room temperature. Free dye was separated using 1 mL packed volume Sephadex G-25 (Sigma) in a poly-prep column. Fractions containing labelled protein were pooled and dye was further removed by three rounds of dialysis in PBS. COST cells were grown in DMEM with 10% Fetal Calf Serum, 50 U/mL penicillin and 50 μg/mL streptomycin. Cells were transfected using Lipofectamine 2000 (Invitrogen) following manufacturer's instructions with 0.25 μg AP-IGF1R, 0.2 μg BirA-ER and 0.05 μg H2B-ECFP per well of a 48 well plate. Cells were incubated with 10 μM biotin overnight for optimum biotinylation by BirA-ER. On the next day, cells were washed 3× in PBS with 5 mM MgCl2 (PBS/Mg) and kept thereafter at 4° C. Cells were incubated for 15 min in PBS/Mg with 1% dialyzed BSA and 0.4 μM Alexa Fluor 555 conjugated […]. Cells were washed with PBS/Mg 3× before imaging live. Cells were imaged using a wide-field DeltaVision Core fluorescent microscope (AppliedPrecision) with a 40× oil-immersion lens. ECFP (436DF20 excitation, 480DF40 emission, Chroma 86002v1 dichroic), Alexa Fluor 555 (540D420 excitation, 600DF50 emission, Chroma 84100bs polychroic), and bright-field images were collected and analyzed using softWoRx 3.6.2 software. Typical exposure times were 0.1-1.0 s and fluorescence images were background-corrected. Different samples in the same experiment were prepared, imaged and analyzed under identical conditions.

Data set [10] is classed as binding. The protocol:
AFM cantilevers (Veeco MLCT-AUHW) with a nominal spring constant of 0.01 N/m were used in all measurements and calibrated by the thermal fluctuation method (Hutter and Bechhoefer, 1993, Review of Scientific Instruments, 64, 1868-1873). Cantilevers were briefly washed in acetone and then UV irradiated for 15 minutes. Cantilevers were then briefly dipped in 0.1M NaHCO3 pH 9.0, air-dried, and coated in 0.5 mg/mL biotinamidocaproyl-Bovine Serum Albumin (biotin-BSA) (Sigma) overnight at 4° C. in a humidified chamber. Cantilevers were washed three times in PBS and then coated with 0.01-0.3 mg/mL streptavidin or […] for 15 mins at 25° C. […] dishes were coated with 0.1M NaHCO3 pH 9 and then 0.5 mg/mL non-recombinant streptavidin (from Streptomyces avidinii, Pierce) in 0.1M NaHCO3 pH 9 overnight in a humidified chamber at 4° C. Biotinylated agarose beads (Sigma) were aspirated onto the dish. Measurements were conducted at 25° C. with a custom built AFM (Rico and Moy, 2007, J. Mol. Recogniti., 20, 495-501). […] Single molecule rupture forces were determined by calculating the force in the retraction trace at the initial point of rupture, using Igor Pro 6.04 (Wavemetrics Inc.). […] The loading rate was determined as the slope of the force vs time plot before the rupturing of the single molecule bond and significance was evaluated with the Mann-Whitney test.

[11] abbreviates: 37° C., pH 7.4, excess free biotin.

With `O=C(O)CCCC[C@@H]1SC[C@@H]2NC(=O)N[C@@H]21` [biotin, cis-hexahydro-2-oxo H-thieno[3,4] imidazole-4-pentanoic acid], the pKa result in data set [1] is “about 4”.
“avidin: Avidin (Sigma), biotin binding protein used as comparator [reference compound]”: in [2] (setting [11]), the “biotin conjugate off-rate (biotin-4-fluorescein dissociation)” value (shortened to “biotin conjugate off-rate”) is listed as “dissociated very much faster than streptavidin”.
In the case of “streptavidin: wildtype streptavidin protein comprising four wildtype subunits; core streptavidin with C-terminal His6 used in the tests [reference compound]”, the “biotin conjugate off-rate” value in data set [2] (setting [11]) is listed as “dissociated steadily”. Besides, the “amount of B-4-F recovered” value in [2] (10 hour incubation, 37° C., excess biotin) is listed as “at least 9%”. Besides, the “temperature at which there is 50% dissociation of tetramer into monomer” value in data set [3] is around 75 °C. Also, in data set [3] (listed as wildtype streptavidin), the “temperature at which there is 50% dissociation of tetramer into monomer” value was 70-75 °C. Besides, in data set [4], the “temperature at which there is 50% dissociation of biotin or biotin conjugate” value is 50-60 °C and the “dissociation of biotinylated DNA at 70° C.” value is listed as “complete dissociation”. The “dissociated from the DNA by FtsK50C translocation” value in data set [5] was found to be 33%. For the same molecule, in data set [6], the “half life of free biotin” value is “approximately 6.6 hr” and the “off rate of biotin” value was 2.9e-05 s⁻¹. Moreover, the “half life for conjugated biotin” value in [7] was 6 to 100 h.
“traptavidin: S52G R53D mutant of core streptavidin with His6 tag, tetramer; subunit SEQ ID NO. 5”: in data set [2] (setting [11]), the “biotin conjugate off-rate” value is on record as “dramatically reduced biotin conjugate off-rate”, the “change at the initial time-point (dissociation)” value is on record as around 2% and the “dissociation over the subsequent 12 hr” value was “very little dissociation”. Moreover, the “off-rate at pH 5 of biotin-4-fluorescein” value in [2] (pH 5, 37° C.) is “significantly slower than streptavidin”. Also, the “on-rate reduction relative to streptavidin” value in data set [8] is “approximately 2 fold”. In addition, the “temperature at which there is 50% dissociation of tetramer into monomer” value in data set [3] is around 85 °C. In data set [4], the “dissociation of biotinylated DNA at 70° C.” value was “most ligand was still bound”. Also, in [9] (Alexa Fluor 555 conjugate), the “binding to untransfected neighboring cells expressing only AP-IGF1R” value is reported as “no detectable binding”, the “signal on AP-IGF1R/BirA-ER expressing cells” value was “strong signal” and the “specificity for cellular imaging” value is listed as “high specificity”. Further, in data set [9] (each conjugated to Alexa Fluor 555), the “staining compared with streptavidin” value was “comparable”. In addition, in [9] (pre-blocked with free biotin), the “binding to equivalently treated cells when pre-blocked with free biotin” value is given as “minimal binding”. In addition, the “mechanical stability to a biotinylated ligand” value in data set [10] was “significantly greater mechanical stability than streptavidin”. Further, the “dissociated from the DNA by FtsK50C translocation” value in data set [5] was 11%.
